Experimental data: paper PMC6264262, “Synthesis and Antimalarial Activity of Novel Dihydro-Artemisinin Derivatives” (Molecules, 2011)

Biological target: T1, P. falciparum falcipain-2 (Plasmodium falciparum, UniProt Q8I6U4)
T1 construct: Recombinant falcipain-2 (30 nM) was incubated for 30 min at room temperature
T1 sequence (Q8I6U4 244-484): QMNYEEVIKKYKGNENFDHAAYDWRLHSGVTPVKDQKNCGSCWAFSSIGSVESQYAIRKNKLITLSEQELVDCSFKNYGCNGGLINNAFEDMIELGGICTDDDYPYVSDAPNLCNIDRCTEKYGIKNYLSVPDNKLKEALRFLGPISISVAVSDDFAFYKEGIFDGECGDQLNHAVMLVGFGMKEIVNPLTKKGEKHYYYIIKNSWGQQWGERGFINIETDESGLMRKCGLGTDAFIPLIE
Test: in vitro falcipain-2 inhibition assay (fluorogenic substrate Z-Leu-Arg-AMC)
Assay type: biochemical
Conditions: recombinant falcipain-2 30 nM, pH 5.5, substrate Z-Leu-Arg-AMC 25 μM; for Inhibition rate: at 10 μM concentration level; for IC50: 30 min preincubation, determined if inhibition rate larger than 20% at 10 μM
Protocol: The in vitro P. falciparum falcipain-2 inhibition assay against was carried out according to a previously reported method by taking N-(L-3-trans-carboxyoxiran-2-carbonyl)-L-leucyl)-amido(4-guanido)butane (E-64) as a positive control and DMSO as a negative control. Falcipain-2 could hydrolyse the fluorogenic substrate benzyloxycarbonyl-Leu-Arg-7-amino-4-methylcoumarin (Z-Leu-Arg-AMC) to produce coumarin and its activity could be evaluated by monitoring the fluorescence of the coumarin.
Recombinant falcipain-2 (30 nM) was incubated for 30 min at room temperature in 100 mM NaOAc, pH 5.5, 10 mM dithiothreitol (DTT), with different concentrations of 10a-l and 12a-f. These solutions were prepared from stock in DMSO (maximum concentration of DMSO in the assay was 1%). After incubation, the substrate Z-Leu-Arg-AMC with the same buffer was added to a final concentration of 25 μM. The increase in fluorescence (excitation at 355 nm and emission at 460 nm) was monitored for 30 min at room temperature with an automated microplate spectrofluorimeter (Biotek, Synergy 2). IC50 values were determined from plots of percent activity over compound concentration using the GraphPad Prism software if inhibition rates were larger than 20% at 10 μM concentration level.

SMILES	Inhibition rate	IC50
CC1CCC2C(C)[C@H](OC(=O)c3ccc(C=NNC(=O)Nc4ccc(F)cc4)cc3)OC3OC4(C)CCC1C32OO4 (stereo partly drawn) [Compound 12b, 4-[(10S)-Dihydroartemisinin-10-oxycarbonyl]benzaldehyde N^4-(4-fluorophenyl)semicarbazone]	69.25%	650 nM
CC(C)C[C@H](NC(=O)[C@H]1O[C@@H]1C(=O)O)C(=O)NCCCCN=C(N)N (relative stereo) [Compound E-64, reference compound]	100.0%	19.7 nM
Cc1ccc(C)c(NC(=O)NN=Cc2ccc(O[C@H]3OC4OC5(C)CCC6C(C)CCC(C3C)C46OO5)cc2)c1 (stereo partly drawn) [Compound 10j, 4-[(10S)-Dihydroartemisinin-10-oxy]benzaldehyde N^4-(2,5-dimethylphenyl)semicarbazone]	59.01%	2280 nM
CC1CCC2C(C)[C@@H](Oc3ccc(C=NNC(=S)Nc4ccc(F)cc4)cc3)OC3OC4(C)CCC1C32OO4 (stereo partly drawn) [Compound 10b, 4-[(10S)-Dihydroartemisinin-10-oxy]benzaldehyde N^4-(4-fluorophenyl)thiosemicarbazone]	59.76%	2170 nM
CC1CCC2C(C)[C@@H](Oc3ccc(C=NNC(=O)Nc4ccc(F)cc4)cc3)OC3OC4(C)CCC1C32OO4 (stereo partly drawn) [Compound 10h, 4-[(10S)-Dihydroartemisinin-10-oxy]benzaldehyde N^4-(4-fluorophenyl)semicarbazone]	84.60%	1020 nM
Cc1ccc(C)c(NC(=O)NN=Cc2ccc(C(=O)O[C@@H]3OC4OC5(C)CCC6C(C)CCC(C3C)C46OO5)cc2)c1 (stereo partly drawn) [Compound 12d, 4-[(10S)-Dihydroartemisinin-10-oxycarbonyl]benzaldehyde N^4-(2,5-dimethylphenyl)semicarbazone]	76.61%	2960 nM
Cc1cc(C)cc(NC(=O)NN=Cc2ccc(C(=O)O[C@@H]3O[C@@H]4O[C@@]5(C)CC[C@H]6[C@H](C)CC[C@@H]([C@H]3C)[C@@]46OO5)cc2)c1 [Compound 12e, 4-[(10S)-Dihydroartemisinin-10-oxycarbonyl]benzaldehyde N^4-(3,5-dimethylphenyl)semicarbazone]	71.62%	570 nM
Cc1c(Cl)cccc1NC(=O)NN=Cc1ccc(O[C@H]2OC3OC4(C)CCC5C(C)CCC(C2C)C35OO4)cc1 (stereo partly drawn) [Compound 10l, 4-[(10S)-Dihydroartemisinin-10-oxy]benzaldehyde N^4-(3-chloro-2-methylphenyl)semicarbazone]	81.82%	2540 nM
CCOc1ccc(NC(=O)NN=Cc2ccc(C(=O)O[C@@H]3OC4OC5(C)CCC6C(C)CCC(C3C)C46OO5)cc2)cc1 (stereo partly drawn) [Compound 12c, 4-[(10S)-Dihydroartemisinin-10-oxycarbonyl]benzaldehyde N^4-(4-ethoxyphenyl)semicarbazone]	75.89%	290 nM
Cc1cc(C)cc(NC(=S)NN=Cc2ccc(O[C@H]3O[C@@H]4O[C@@]5(C)CC[C@H]6[C@H](C)CC[C@@H]([C@H]3C)[C@@]46OO5)cc2)c1 [Compound 10e, 4-[(10S)-Dihydroartemisinin-10-oxy]benzaldehyde N^4-(3,5-dimethylphenyl)thiosemicarbazone]	74.06%	1350 nM
CCOc1ccc(NC(=S)NN=Cc2ccc(O[C@H]3OC4OC5(C)CCC6C(C)CCC(C3C)C46OO5)cc2)cc1 (stereo partly drawn) [Compound 10c, 4-[(10S)-Dihydroartemisinin-10-oxy]benzaldehyde N^4-(4-ethoxyphenyl)thiosemicarbazone]	87.42%	520 nM
Cc1cc(C)cc(NC(=O)NN=Cc2ccc(O[C@H]3O[C@@H]4O[C@@]5(C)CC[C@H]6[C@H](C)CC[C@@H]([C@H]3C)[C@@]46OO5)cc2)c1 [Compound 10k, 4-[(10S)-Dihydroartemisinin-10-oxy]benzaldehyde N^4-(3,5-dimethylphenyl)semicarbazone]	87.88%	1030 nM
CC1CCC2C(C)[C@H](OC(=O)c3ccc(C=NNC(=O)Nc4ccccc4F)cc3)OC3OC4(C)CCC1C32OO4 (stereo partly drawn) [Compound 12a, 4-[(10S)-Dihydroartemisinin-10-oxycarbonyl]benzaldehyde N^4-(2-fluorophenyl)semicarbazone]	79.32%	470 nM
Cc1ccc(C)c(NC(=S)NN=Cc2ccc(O[C@H]3OC4OC5(C)CCC6C(C)CCC(C3C)C46OO5)cc2)c1 (stereo partly drawn) [Compound 10d, 4-[(10S)-Dihydroartemisinin-10-oxy]benzaldehyde N^4-(2,5-dimethylphenyl)thiosemicarbazone]	75.28%	550 nM
Cc1c(Cl)cccc1NC(=S)NN=Cc1ccc(O[C@H]2OC3OC4(C)CCC5C(C)CCC(C2C)C35OO4)cc1 (stereo partly drawn) [Compound 10f, 4-[(10S)-Dihydroartemisinin-10-oxy]benzaldehyde N^4-(3-chloro-2-methylphenyl)thiosemicarbazone]	75.62%	984 nM
Cc1c(Cl)cccc1NC(=O)NN=Cc1ccc(C(=O)O[C@@H]2OC3OC4(C)CCC5C(C)CCC(C2C)C35OO4)cc1 (stereo partly drawn) [Compound 12f, 4-[(10S)-Dihydroartemisinin-10-oxycarbonyl]benzaldehyde N^4-(3-chloro-2-methylphenyl)semicarbaz-one]	74.67%	10600 nM
CCOc1ccc(NC(=O)NN=Cc2ccc(O[C@H]3OC4OC5(C)CCC6C(C)CCC(C3C)C46OO5)cc2)cc1 (stereo partly drawn) [Compound 10i, 4-[(10S)-Dihydroartemisinin-10-oxy]benzaldehyde N^4-(4-ethoxyphenyl)semicarbazone]	72.70%	700 nM
CC1CCC2C(C)[C@@H](Oc3ccc(C=NNC(=O)Nc4ccccc4F)cc3)OC3OC4(C)CCC1C32OO4 (stereo partly drawn) [Compound 10g, 4-[(10S)-Dihydroartemisinin-10-oxy]benzaldehyde N^4-(2-fluorophenyl)semicarbazone]	76.74%	2250 nM
CC1CCC2C(C)[C@@H](Oc3ccc(C=NNC(=S)Nc4ccccc4F)cc3)OC3OC4(C)CCC1C32OO4 (stereo partly drawn) [Compound 10a, 4-[(10S)-Dihydroartemisinin-10-oxy]benzaldehyde N^4-(2-fluorophenyl)thiosemicarbazone]	72.48%	2510 nM
